For one assay, the target named is Delta-type opioid receptor (Homo sapiens, UniProt P41143). The class given is cell membranes, HEK293, Membrane. To be noted: hek293. Also: in other assays of this panel Not Active means under 50% inhibition at 10 µM.
Chain of Mitogen-activated protein kinase 14 (Q16539 whole entry): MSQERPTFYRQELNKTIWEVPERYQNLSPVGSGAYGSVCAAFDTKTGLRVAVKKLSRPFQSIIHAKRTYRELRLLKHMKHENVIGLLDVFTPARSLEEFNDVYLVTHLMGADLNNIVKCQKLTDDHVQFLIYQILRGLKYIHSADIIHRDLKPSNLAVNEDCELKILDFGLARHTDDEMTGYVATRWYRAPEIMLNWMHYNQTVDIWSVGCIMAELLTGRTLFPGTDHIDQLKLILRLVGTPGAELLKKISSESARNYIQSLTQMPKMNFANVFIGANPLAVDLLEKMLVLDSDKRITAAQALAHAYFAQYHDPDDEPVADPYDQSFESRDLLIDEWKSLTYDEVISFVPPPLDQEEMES
Chain of Delta-type opioid receptor (P41143 whole entry): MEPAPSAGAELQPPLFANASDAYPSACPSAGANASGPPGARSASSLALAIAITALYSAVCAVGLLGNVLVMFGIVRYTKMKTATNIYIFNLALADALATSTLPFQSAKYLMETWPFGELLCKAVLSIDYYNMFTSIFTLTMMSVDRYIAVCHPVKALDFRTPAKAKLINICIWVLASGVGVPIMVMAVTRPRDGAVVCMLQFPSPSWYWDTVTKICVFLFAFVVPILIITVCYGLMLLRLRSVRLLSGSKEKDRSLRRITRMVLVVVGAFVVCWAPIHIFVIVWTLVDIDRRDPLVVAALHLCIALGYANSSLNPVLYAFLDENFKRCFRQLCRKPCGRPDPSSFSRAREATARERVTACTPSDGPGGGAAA
A word on the IC50: it is the concentration that inhibits the measured activity by half. `CCCc1cc(=O)[nH]c(=S)[nH]1` [PROPYLTHIOURACIL]: the IC50 entry was “Not Active”.

As for `CC(=O)OCC(=O)[C@@]1(OC(C)=O)[C@@H](C)C[C@H]2[C@@H]3C[C@H](F)C4=CC(=O)C=C[C@]4(C)[C@@]3(F)[C@@H](O)C[C@@]21C` [DIFLORASONE DIACETATE], the IC50 entry is given as “Not Active”.

Another assay has as its target Nitric oxide synthase 1 (Rattus norvegicus, UniProt P29476). The assay is classed as tissue-based, Cerebellum. Also: in other assays of this panel Not Active means under 50% inhibition at 10 µM.
Conditions: not given
For `CCCc1cc(=O)[nH]c(=S)[nH]1` [PROPYLTHIOURACIL], the IC50 entry is on record as “Not Active”.

On to `CC(=O)OCC(=O)[C@@]1(OC(C)=O)[C@@H](C)C[C@H]2[C@@H]3C[C@H](F)C4=CC(=O)C=C[C@]4(C)[C@@]3(F)[C@@H](O)C[C@@]21C` [DIFLORASONE DIACETATE], for which the half-maximal inhibitory concentration (IC50) result is “Not Active”.

A further assay deals with T1, Alpha-1A adrenergic receptor (Rattus norvegicus, UniProt P43140).
T1 sequence (P43140 whole entry): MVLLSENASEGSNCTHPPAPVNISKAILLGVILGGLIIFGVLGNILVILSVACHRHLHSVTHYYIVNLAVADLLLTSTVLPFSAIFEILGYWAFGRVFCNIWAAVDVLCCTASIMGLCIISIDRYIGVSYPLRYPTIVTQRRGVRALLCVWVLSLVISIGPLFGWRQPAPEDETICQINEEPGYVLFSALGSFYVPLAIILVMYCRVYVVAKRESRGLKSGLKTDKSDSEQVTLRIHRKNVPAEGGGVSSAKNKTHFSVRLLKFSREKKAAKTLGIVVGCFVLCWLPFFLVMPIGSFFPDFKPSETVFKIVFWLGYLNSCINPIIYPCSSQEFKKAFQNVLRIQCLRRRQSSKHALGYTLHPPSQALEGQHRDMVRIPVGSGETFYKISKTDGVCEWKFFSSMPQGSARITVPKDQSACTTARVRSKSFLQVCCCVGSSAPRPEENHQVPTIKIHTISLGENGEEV
The assay is described as follows: DRUGMATRIX: Alpha-1A adrenergic receptor radioligand binding (ligand: prazosin). The assay is classed as cell membranes, Wistar, Submaxillary gland, Membrane. To be noted: Not Active = under 50% inhibition at 10 µM.
For the molecule `CCCc1cc(=O)[nH]c(=S)[nH]1` [PROPYLTHIOURACIL], the IC50 result was “Not Active”.

For `CC(=O)OCC(=O)[C@@]1(OC(C)=O)[C@@H](C)C[C@H]2[C@@H]3C[C@H](F)C4=CC(=O)C=C[C@]4(C)[C@@]3(F)[C@@H](O)C[C@@]21C` [DIFLORASONE DIACETATE], the IC50 entry is reported as “Not Active”.

Tested on in a further assay: not listed separately
In words: DRUGMATRIX: Serotonin (5-Hydroxytryptamine) 5-HT3 radioligand binding (ligand: [3H] GR-65630). The class given is cell membranes, Membrane. To be noted: hek293; Not Active = under 50% inhibition at 10 µM.
A word on the Ki: it is a dissociation constant, usually derived from enzyme kinetics or from competition with a known ligand. As for `CCCc1cc(=O)[nH]c(=S)[nH]1` [PROPYLTHIOURACIL], the IC50 entry is “Not Active” and the Ki entry is given as “Not Active”.

For the molecule `CC(=O)OCC(=O)[C@@]1(OC(C)=O)[C@@H](C)C[C@H]2[C@@H]3C[C@H](F)C4=CC(=O)C=C[C@]4(C)[C@@]3(F)[C@@H](O)C[C@@]21C` [DIFLORASONE DIACETATE], the IC50 result was “Not Active” and the Ki result is “Not Active”.

A further assay has as its target T2, Progesterone receptor (Bos taurus, UniProt Q690N0).
T2 sequence (Q690N0 whole entry): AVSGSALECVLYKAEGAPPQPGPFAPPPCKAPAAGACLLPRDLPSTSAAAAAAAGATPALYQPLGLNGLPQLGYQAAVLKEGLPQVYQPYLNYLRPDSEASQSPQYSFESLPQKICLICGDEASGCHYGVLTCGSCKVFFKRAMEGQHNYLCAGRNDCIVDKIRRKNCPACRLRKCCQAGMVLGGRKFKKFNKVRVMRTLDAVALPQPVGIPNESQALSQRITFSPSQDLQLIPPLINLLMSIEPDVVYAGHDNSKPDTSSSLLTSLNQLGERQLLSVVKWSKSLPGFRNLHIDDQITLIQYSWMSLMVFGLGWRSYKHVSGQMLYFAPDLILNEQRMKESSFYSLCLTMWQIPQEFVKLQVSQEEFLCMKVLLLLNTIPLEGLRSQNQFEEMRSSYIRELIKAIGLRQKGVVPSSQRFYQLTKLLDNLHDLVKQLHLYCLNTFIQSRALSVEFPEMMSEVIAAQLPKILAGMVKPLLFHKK
In words: DRUGMATRIX: Progesterone radioligand binding (ligand: [3H] R-5020). To be noted: Not Active = under 50% inhibition at 10 µM. The assay is classed as tissue-based, Uterus.
As to `CCCc1cc(=O)[nH]c(=S)[nH]1` [PROPYLTHIOURACIL], the IC50 entry was “Not Active”.

Still in this assay, the particulars now being: Not Active = under 50% inhibition at 10 µM; read-out: IC50.
In the case of `CC(=O)OCC(=O)[C@@]1(OC(C)=O)[C@@H](C)C[C@H]2[C@@H]3C[C@H](F)C4=CC(=O)C=C[C@]4(C)[C@@]3(F)[C@@H](O)C[C@@]21C` [DIFLORASONE DIACETATE], the IC50 stood at 116 nM.

The same assay, now with this note: Not Active = under 50% inhibition at 10 µM; read-out: Ki.
On to `CC(=O)OCC(=O)[C@@]1(OC(C)=O)[C@@H](C)C[C@H]2[C@@H]3C[C@H](F)C4=CC(=O)C=C[C@]4(C)[C@@]3(F)[C@@H](O)C[C@@]21C` [DIFLORASONE DIACETATE], for which the Ki is 15 nM.

Another assay deals with Matrix metalloproteinase-9 (Homo sapiens, UniProt P14780). The class given is cell-based.
Chain of Matrix metalloproteinase-9 (P14780 whole entry): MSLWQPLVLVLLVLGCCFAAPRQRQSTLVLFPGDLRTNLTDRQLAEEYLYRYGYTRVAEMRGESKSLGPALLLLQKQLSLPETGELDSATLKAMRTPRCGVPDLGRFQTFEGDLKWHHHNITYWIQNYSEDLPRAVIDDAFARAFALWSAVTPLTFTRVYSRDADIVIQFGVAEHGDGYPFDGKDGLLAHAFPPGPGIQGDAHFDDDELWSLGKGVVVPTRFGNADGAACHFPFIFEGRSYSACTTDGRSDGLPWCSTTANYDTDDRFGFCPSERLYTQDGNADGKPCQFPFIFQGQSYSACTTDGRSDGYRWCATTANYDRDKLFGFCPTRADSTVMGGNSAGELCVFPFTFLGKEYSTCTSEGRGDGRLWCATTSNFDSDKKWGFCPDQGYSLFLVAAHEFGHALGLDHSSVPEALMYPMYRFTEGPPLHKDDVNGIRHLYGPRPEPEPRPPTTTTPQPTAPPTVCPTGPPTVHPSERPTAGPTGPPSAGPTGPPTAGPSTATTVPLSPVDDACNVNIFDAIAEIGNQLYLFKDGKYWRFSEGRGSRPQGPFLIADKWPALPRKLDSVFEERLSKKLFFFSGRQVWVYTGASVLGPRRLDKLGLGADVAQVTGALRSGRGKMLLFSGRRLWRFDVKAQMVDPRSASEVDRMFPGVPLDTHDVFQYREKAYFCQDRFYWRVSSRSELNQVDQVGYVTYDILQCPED
Conditions: not given
`CCCc1cc(=O)[nH]c(=S)[nH]1` [PROPYLTHIOURACIL]: the IC50 entry is “Not Active”.

Regarding `CC(=O)OCC(=O)[C@@]1(OC(C)=O)[C@@H](C)C[C@H]2[C@@H]3C[C@H](F)C4=CC(=O)C=C[C@]4(C)[C@@]3(F)[C@@H](O)C[C@@]21C` [DIFLORASONE DIACETATE], the IC50 entry was “Not Active”.

In another assay the target is Vascular endothelial growth factor receptor 1 (Homo sapiens, UniProt P17948). The class given is cell-based. As to conditions: huvec. Also: in other assays of this panel Not Active means under 50% inhibition at 10 µM.
Chain of Vascular endothelial growth factor receptor 1 (P17948 whole entry): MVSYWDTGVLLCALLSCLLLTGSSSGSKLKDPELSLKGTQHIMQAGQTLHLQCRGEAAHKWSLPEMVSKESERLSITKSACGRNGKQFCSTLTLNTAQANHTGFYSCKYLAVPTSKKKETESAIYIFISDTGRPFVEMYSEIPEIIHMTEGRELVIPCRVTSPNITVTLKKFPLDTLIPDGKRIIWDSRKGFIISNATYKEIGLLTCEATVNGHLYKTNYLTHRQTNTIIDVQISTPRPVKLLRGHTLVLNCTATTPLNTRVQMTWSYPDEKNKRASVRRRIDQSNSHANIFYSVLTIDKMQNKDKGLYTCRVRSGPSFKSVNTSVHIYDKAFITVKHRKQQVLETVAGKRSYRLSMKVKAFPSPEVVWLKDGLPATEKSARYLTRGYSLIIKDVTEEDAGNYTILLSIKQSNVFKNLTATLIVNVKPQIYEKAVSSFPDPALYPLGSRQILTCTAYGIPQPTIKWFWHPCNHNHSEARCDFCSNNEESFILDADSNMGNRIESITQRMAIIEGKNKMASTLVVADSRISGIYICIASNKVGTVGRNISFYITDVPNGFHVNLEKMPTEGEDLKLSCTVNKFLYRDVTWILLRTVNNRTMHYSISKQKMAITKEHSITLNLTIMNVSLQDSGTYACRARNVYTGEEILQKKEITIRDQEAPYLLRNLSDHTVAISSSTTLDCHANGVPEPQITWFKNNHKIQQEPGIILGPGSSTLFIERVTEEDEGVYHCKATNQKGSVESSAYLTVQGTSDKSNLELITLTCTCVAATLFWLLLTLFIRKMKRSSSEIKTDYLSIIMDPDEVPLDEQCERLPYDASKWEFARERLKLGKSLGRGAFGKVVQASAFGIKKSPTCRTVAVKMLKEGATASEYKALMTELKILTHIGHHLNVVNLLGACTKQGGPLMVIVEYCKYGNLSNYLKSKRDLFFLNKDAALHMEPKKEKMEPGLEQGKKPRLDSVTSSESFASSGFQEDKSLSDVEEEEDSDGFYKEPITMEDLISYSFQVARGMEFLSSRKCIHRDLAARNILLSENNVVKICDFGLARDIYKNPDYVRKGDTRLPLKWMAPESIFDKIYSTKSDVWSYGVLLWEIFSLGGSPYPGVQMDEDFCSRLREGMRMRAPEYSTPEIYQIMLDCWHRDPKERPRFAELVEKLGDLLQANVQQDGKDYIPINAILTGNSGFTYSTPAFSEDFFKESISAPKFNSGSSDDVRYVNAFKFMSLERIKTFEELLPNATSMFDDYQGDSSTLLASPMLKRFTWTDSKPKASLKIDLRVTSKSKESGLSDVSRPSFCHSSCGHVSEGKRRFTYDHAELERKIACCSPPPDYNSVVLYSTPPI
In the case of `CCCc1cc(=O)[nH]c(=S)[nH]1` [PROPYLTHIOURACIL], the IC50 result is listed as “Not Active”.

`CC(=O)OCC(=O)[C@@]1(OC(C)=O)[C@@H](C)C[C@H]2[C@@H]3C[C@H](F)C4=CC(=O)C=C[C@]4(C)[C@@]3(F)[C@@H](O)C[C@@]21C` [DIFLORASONE DIACETATE]: the IC50 entry is recorded as “Not Active”.

The target of another assay is Sigma non-opioid intracellular receptor 1 (Homo sapiens, UniProt Q99720). The assay is described as follows: DRUGMATRIX: Sigma1 radioligand binding (ligand: [3H] Haloperidol). As to conditions: jurkat; Not Active = under 50% inhibition at 10 µM. The assay is classed as cell membranes, Jurkat, Membrane.
Chain of Sigma non-opioid intracellular receptor 1 (Q99720 whole entry): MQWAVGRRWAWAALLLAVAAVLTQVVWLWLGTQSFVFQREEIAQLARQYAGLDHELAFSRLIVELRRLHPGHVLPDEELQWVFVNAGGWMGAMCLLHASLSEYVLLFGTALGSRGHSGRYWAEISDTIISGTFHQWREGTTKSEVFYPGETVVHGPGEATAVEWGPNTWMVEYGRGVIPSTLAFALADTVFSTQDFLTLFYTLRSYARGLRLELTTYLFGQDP
As for `CCCc1cc(=O)[nH]c(=S)[nH]1` [PROPYLTHIOURACIL], the IC50 entry is “Not Active”.

Regarding `CC(=O)OCC(=O)[C@@]1(OC(C)=O)[C@@H](C)C[C@H]2[C@@H]3C[C@H](F)C4=CC(=O)C=C[C@]4(C)[C@@]3(F)[C@@H](O)C[C@@]21C` [DIFLORASONE DIACETATE], the IC50 result is listed as “Not Active”.

For another assay, the target named is T3, Muscarinic acetylcholine receptor M4 (Homo sapiens, UniProt P08173). Also: in other assays of this panel Not Active means under 50% inhibition at 10 µM.
T3 sequence (P08173 whole entry): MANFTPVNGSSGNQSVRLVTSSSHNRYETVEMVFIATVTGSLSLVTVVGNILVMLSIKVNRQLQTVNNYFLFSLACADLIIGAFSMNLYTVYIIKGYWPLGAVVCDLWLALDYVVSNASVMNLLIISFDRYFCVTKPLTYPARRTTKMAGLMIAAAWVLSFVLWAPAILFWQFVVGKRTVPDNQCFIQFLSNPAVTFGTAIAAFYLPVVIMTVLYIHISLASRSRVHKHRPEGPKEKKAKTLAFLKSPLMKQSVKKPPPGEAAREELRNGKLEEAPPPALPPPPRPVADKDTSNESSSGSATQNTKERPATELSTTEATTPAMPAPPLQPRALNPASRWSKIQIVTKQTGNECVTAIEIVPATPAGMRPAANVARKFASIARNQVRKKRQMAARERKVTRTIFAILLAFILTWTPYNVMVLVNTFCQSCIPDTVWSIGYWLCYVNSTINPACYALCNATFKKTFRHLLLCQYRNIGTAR
The assay is classed as cell membranes, CHO-K1, Membrane. To be noted: cho-k1.
Regarding `CCCc1cc(=O)[nH]c(=S)[nH]1` [PROPYLTHIOURACIL], the IC50 entry is given as “Not Active”.

Consider `CC(=O)OCC(=O)[C@@]1(OC(C)=O)[C@@H](C)C[C@H]2[C@@H]3C[C@H](F)C4=CC(=O)C=C[C@]4(C)[C@@]3(F)[C@@H](O)C[C@@]21C` [DIFLORASONE DIACETATE], for which the IC50 result is “Not Active”.

The next assay deals with Protein kinase C alpha type (Homo sapiens, UniProt P17252). The assay is classed as cell-based. To be noted: sf9.
As to `CCCc1cc(=O)[nH]c(=S)[nH]1` [PROPYLTHIOURACIL], the IC50 entry is given as “Not Active”.

Take `CC(=O)OCC(=O)[C@@]1(OC(C)=O)[C@@H](C)C[C@H]2[C@@H]3C[C@H](F)C4=CC(=O)C=C[C@]4(C)[C@@]3(F)[C@@H](O)C[C@@]21C` [DIFLORASONE DIACETATE]: the IC50 entry is on record as “Not Active”.

Another assay has as its target T4, B2 bradykinin receptor (Homo sapiens, UniProt P30411). Also: in other assays of this panel Not Active means under 50% inhibition at 10 µM.
T4 sequence (P30411 whole entry): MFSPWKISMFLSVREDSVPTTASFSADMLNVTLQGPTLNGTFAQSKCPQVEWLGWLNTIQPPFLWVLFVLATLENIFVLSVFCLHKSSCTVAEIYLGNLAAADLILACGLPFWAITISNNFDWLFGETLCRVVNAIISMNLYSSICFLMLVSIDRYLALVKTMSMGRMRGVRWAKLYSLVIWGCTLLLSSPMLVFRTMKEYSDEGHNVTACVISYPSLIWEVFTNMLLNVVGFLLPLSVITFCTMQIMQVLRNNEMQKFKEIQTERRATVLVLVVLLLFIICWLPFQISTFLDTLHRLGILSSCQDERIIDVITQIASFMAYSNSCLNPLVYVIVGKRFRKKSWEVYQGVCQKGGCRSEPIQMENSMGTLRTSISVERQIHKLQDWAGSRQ
The assay is classed as cell membranes, Membrane. As to conditions: chem-1.
Take `CCCc1cc(=O)[nH]c(=S)[nH]1` [PROPYLTHIOURACIL]: the IC50 result was “Not Active”.

Consider `CC(=O)OCC(=O)[C@@]1(OC(C)=O)[C@@H](C)C[C@H]2[C@@H]3C[C@H](F)C4=CC(=O)C=C[C@]4(C)[C@@]3(F)[C@@H](O)C[C@@]21C` [DIFLORASONE DIACETATE], for which the IC50 result was “Not Active”.

A further assay addresses Mitogen-activated protein kinase 14 (Homo sapiens, UniProt Q16539). Details: species or system Escherichia coli.
Conditions: not given
As for `CCCc1cc(=O)[nH]c(=S)[nH]1` [PROPYLTHIOURACIL], the IC50 entry is “Not Active”.

With `CC(=O)OCC(=O)[C@@]1(OC(C)=O)[C@@H](C)C[C@H]2[C@@H]3C[C@H](F)C4=CC(=O)C=C[C@]4(C)[C@@]3(F)[C@@H](O)C[C@@]21C` [DIFLORASONE DIACETATE], the IC50 result is “Not Active”.

The values above are taken from ChEMBL document CHEMBL1909046, “DrugMatrix in vitro pharmacology data”.
